Laboratory results from article PMC12136037, “Type II kinase inhibitors that target Parkinson’s disease–associated LRRK2” (Science Advances, 2025).

Tests used:
Assay in all cases: DSF 100 kinase selectivity screen;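 note: compound tested at 20 µM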
Type in all cases: binding
[1] = target: T1, ~100 representative kinases (Homo sapiens, UniProt O75582); details: Protein RPS6KA5; DSF; average of three replicates
T1 construct: Recombinant protein kinase domains with a concentration of 2 μM
Summary of the method: (§1)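 Each kinase domain, at 2 μM, is mixed with 20 μM test compound and SYPRO Orange in Hepes (20 mM, pH 7.5) with 500 mM NaCl. Temperature is then raised at 3°C/min and fluorescence-monitored unfolding yields the melting temperature change, ΔTm in degrees Celsius.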

[2] = target: T2, ~100 representative kinases (Homo sapiens, UniProt P49674); details: Protein CSNK1E; average of three replicates
T2 construct: Recombinant protein kinase domains with a concentration of 2 μM
T2 sequence (P49674 whole entry, the tested form may be a part): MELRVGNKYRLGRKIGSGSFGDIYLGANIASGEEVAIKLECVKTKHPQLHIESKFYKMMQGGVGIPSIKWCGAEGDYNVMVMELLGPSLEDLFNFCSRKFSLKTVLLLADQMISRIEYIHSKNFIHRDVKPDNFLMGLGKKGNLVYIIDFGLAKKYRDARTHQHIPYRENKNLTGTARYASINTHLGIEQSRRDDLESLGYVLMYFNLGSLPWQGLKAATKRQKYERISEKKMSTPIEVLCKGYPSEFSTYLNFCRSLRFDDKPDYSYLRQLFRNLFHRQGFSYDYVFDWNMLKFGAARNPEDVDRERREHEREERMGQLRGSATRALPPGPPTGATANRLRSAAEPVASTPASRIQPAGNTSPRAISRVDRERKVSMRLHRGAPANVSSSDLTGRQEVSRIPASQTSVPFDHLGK
Summary of the method: as §1

[3] = target: T3, ~100 representative kinases (Homo sapiens, UniProt Q13873); details: Protein BMPR2; average of three replicates
T3 construct: Recombinant protein kinase domains with a concentration of 2 μM
T3 sequence (Q13873 27-1038): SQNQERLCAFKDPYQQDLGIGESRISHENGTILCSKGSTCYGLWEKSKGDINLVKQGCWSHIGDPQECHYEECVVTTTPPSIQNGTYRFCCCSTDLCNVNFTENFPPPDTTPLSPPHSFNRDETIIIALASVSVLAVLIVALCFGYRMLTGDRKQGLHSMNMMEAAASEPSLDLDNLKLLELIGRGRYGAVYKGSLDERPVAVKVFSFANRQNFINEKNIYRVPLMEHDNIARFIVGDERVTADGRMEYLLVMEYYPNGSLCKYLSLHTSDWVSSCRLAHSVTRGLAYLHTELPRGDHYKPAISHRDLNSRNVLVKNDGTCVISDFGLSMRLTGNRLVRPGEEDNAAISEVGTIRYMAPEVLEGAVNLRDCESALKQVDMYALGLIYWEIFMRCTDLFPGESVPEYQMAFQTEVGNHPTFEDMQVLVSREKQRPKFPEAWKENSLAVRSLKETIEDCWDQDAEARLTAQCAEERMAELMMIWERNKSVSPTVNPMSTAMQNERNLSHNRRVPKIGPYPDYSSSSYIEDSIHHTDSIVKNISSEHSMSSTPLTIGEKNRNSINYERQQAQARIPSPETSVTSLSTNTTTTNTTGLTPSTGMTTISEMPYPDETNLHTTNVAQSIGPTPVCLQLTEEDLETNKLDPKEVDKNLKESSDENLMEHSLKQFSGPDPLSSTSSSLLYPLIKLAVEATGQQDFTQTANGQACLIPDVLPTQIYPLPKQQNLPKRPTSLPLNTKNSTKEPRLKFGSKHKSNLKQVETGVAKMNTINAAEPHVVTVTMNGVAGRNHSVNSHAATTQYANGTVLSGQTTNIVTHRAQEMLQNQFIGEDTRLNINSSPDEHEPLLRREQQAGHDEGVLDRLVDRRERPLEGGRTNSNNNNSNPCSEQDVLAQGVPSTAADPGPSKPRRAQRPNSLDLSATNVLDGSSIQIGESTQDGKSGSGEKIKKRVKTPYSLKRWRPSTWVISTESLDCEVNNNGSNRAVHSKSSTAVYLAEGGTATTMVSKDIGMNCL
Summary of the method: as §1

[4] = target: T4, ~100 representative kinases (Homo sapiens, UniProt Q15375); details: Protein EPHA7; average of three replicates
T4 construct: Recombinant protein kinase domains with a concentration of 2 μM
T4 sequence (Q15375 28-998): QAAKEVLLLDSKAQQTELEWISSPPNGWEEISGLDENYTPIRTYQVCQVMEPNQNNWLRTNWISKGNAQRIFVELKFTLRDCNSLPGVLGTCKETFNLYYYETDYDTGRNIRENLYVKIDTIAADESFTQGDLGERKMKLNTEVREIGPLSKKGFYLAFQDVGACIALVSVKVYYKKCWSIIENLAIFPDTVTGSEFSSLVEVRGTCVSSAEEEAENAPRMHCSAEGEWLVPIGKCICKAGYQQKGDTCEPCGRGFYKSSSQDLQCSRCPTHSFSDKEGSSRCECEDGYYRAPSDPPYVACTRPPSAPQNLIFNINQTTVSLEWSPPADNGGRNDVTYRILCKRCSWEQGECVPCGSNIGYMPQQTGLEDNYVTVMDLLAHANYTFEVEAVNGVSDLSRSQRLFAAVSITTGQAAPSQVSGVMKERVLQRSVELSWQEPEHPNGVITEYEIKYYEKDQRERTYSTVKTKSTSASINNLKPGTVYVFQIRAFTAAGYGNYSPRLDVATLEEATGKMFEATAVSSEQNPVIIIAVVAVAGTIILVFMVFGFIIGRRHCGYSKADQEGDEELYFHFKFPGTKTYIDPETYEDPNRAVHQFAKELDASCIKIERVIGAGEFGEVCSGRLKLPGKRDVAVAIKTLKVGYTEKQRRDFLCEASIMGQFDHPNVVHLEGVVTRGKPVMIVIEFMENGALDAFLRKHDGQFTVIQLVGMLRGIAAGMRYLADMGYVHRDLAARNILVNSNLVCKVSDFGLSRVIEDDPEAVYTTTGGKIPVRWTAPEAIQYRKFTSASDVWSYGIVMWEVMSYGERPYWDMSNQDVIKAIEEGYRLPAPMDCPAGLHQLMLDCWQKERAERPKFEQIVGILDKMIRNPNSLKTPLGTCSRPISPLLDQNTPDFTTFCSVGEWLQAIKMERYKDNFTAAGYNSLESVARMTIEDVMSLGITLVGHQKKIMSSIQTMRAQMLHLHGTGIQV
Summary of the method: as §1

[5] = target: T5, ~100 representative kinases (Homo sapiens, UniProt Q15418); details: Protein RPS6KA1; DSF; average of three replicates
T5 construct: Recombinant protein kinase domains with a concentration of 2 μM
T5 sequence (Q15418 whole entry, the tested form may be a part): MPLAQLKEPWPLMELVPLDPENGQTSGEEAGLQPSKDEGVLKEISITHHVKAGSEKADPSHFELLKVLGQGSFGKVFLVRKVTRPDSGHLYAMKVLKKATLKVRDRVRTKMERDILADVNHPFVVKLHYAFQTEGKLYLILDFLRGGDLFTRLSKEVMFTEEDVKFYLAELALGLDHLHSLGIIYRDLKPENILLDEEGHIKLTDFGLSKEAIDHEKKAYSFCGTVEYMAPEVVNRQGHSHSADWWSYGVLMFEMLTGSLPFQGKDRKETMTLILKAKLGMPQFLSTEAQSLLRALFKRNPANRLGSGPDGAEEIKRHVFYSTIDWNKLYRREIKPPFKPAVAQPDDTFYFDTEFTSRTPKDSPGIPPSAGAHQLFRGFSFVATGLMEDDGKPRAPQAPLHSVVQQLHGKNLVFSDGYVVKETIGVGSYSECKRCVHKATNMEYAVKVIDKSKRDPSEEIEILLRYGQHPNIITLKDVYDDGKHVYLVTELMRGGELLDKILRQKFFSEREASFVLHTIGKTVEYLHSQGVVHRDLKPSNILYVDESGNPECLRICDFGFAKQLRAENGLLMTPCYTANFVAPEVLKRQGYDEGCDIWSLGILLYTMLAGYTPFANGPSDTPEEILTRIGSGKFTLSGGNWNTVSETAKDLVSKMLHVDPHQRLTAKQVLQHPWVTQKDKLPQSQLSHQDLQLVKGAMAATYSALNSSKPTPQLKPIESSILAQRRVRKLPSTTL
Summary of the method: as §1

[6] = target: T6, ~100 representative kinases (Homo sapiens, UniProt Q96L34); details: protein MARK4; average of three replicates
T6 construct: Recombinant protein kinase domains with a concentration of 2 μM
T6 sequence (Q96L34 1-752): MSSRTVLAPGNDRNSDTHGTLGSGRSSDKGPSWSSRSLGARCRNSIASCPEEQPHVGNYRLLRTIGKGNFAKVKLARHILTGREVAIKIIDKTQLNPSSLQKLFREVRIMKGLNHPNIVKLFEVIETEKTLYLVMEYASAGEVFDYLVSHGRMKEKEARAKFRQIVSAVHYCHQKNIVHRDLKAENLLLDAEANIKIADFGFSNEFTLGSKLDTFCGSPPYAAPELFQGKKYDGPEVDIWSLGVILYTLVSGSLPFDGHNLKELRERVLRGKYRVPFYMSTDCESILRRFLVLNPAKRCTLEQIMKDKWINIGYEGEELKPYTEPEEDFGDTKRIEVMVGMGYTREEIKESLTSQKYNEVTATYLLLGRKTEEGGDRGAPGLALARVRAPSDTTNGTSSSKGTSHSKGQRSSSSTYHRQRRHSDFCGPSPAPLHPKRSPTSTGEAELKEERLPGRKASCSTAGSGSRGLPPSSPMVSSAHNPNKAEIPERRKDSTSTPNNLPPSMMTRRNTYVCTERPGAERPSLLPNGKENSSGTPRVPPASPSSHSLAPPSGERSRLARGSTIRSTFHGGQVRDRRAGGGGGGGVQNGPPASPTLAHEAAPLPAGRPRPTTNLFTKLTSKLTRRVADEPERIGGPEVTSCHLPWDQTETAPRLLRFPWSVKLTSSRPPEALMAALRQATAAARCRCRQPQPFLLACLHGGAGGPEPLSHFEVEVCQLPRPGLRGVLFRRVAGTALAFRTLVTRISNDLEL
Summary of the method: as §1

[7] = target: T7, ~100 representative kinases (Homo sapiens, UniProt Q96RR4); details: Protein CAMKK2; average of three replicates
T7 construct: Recombinant protein kinase domains with a concentration of 2 μM
T7 sequence (Q96RR4 whole entry, the tested form may be a part): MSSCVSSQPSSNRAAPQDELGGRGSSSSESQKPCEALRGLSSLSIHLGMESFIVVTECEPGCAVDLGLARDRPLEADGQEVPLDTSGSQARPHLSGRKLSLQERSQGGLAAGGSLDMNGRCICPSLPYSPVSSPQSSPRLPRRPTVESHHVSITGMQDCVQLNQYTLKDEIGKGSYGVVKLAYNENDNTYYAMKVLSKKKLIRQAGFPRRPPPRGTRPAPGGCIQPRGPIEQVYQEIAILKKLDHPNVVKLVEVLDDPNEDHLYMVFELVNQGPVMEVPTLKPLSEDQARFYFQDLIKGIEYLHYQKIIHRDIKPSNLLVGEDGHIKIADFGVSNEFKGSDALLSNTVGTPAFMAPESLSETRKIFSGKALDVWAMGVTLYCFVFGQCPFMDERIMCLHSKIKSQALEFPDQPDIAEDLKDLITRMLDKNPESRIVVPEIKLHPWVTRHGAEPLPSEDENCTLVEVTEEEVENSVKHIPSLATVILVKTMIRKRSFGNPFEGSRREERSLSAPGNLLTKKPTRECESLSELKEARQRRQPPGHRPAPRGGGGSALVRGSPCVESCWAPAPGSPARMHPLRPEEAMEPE
Summary of the method: as §1

[8] = target: T8, ~100 representative kinases (Homo sapiens, UniProt Q99640); details: protein PKMYT1; average of three replicates
T8 construct: Recombinant protein kinase domains with a concentration of 2 μM
T8 sequence (Q99640 1-499): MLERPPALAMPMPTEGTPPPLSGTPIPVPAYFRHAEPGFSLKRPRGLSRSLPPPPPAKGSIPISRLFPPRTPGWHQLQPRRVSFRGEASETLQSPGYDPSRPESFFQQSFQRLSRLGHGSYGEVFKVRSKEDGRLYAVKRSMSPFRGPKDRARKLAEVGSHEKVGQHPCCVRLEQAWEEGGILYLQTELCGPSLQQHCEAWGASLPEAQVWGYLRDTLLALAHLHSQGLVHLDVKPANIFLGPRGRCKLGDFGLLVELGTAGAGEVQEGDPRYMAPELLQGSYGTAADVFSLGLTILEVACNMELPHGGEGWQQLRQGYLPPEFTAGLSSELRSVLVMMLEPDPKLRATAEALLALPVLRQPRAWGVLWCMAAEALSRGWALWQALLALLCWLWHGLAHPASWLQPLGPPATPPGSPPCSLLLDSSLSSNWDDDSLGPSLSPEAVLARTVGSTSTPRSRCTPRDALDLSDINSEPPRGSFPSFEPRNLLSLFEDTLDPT
Summary of the method: as §1

T1 sequence (O75582 whole entry, the tested form may be a part): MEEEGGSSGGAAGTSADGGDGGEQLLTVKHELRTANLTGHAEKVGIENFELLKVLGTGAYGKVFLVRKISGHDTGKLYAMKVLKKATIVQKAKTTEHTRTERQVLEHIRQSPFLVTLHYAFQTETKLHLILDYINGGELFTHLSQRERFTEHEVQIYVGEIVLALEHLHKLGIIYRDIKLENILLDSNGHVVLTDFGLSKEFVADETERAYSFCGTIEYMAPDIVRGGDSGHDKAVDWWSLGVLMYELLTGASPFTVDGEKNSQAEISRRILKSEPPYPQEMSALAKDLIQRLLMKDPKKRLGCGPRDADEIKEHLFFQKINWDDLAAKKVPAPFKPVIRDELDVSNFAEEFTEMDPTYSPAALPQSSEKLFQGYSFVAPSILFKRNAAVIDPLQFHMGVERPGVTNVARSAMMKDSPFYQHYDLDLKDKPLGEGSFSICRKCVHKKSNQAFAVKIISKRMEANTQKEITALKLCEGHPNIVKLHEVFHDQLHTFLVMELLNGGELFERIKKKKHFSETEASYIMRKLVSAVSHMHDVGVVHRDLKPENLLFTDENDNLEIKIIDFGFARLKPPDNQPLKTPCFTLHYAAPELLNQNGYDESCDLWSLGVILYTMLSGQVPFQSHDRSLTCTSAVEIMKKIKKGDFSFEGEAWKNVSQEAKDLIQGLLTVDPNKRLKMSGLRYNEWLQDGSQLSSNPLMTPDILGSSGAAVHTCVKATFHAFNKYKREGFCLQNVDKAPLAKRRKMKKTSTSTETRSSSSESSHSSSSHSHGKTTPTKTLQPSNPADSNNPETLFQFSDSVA

Compound	dTm [1] [K]	dTm [2] [K]	dTm [3] [K]	dTm [4] [K]	dTm [5] [K]	dTm [6] [K]	dTm [7] [K]	dTm [8] [K]
Cc1ccc(C(=O)Nc2ccc(CN3CCN(C)CC3)c(C(F)(F)F)c2)cc1C#Cc1cnc2cccnn12 [Ponatinib, reference compound]					9.86	-0.48		-0.27
Cn1cc(-c2c[nH]c3ncnc(N4CCOCC4)c23)cc1C#N [PFE-360]	0.69		2.89	-0.34	1.09	3.49	5.91	0.19
Cc1ccc(C(=O)Nc2ccc(CN3CCN(C)CC3)c(C(F)(F)F)c2)cc1C#Cc1cnc2[nH]ncc2c1 [GZD-824, reference compound]	8.48			1.51	9.39	1.02	8.63	0.44
CCNc1nc(Nc2cc(F)c(C(=O)N3CCOCC3)cc2OC)ncc1C(F)(F)F [GNE-7915]	3.91		1.37	-0.20	0.64	-0.13	1.38	-0.40
COc1cc(C(=O)N2CCOCC2)c(F)cc1Nc1nc(N(C)C)c2c(Cl)c[nH]c2n1 [Compound 36]	2.79	4.43	0.63	2.27	1.99	-0.63		-0.59
CN[C@@H]1C[C@H]2O[C@@](C)([C@@H]1OC)n1c3ccccc3c3c4c(c5c6ccccc6n2c5c31)C(=O)NC4 [Staurosporine]	13.79		3.02	12.09		15.90	24.44	
COc1cc(S(C)(=O)=O)ccc1Nc1nc(N(C)C)c2c(Cl)c[nH]c2n1 [Compound 37]	1.80	1.77	-0.0179	0.12	0.36	0.42		-0.22
C[C@@H]1CN(c2cc(-c3n[nH]c4ccc(OC5(C)CC5)cc34)ncn2)C[C@H](C)O1 [MLi2]	-1.02		0.0116	0.12	2.98	-0.55	8.80	-0.55
CNC(=O)c1cc(Oc2ccc(NC(=O)Nc3cc(C(C)(C)C)nn3-c3ccc4ncccc4c3)c(F)c2)ccn1 [Rebastinib, reference compound]		0.33	-0.70	3.35	1.31	2.04	8.93	0.77

Now from value to compound:

dTm [1] [K]	dTm [2] [K]	dTm [3] [K]	dTm [4] [K]	dTm [5] [K]	dTm [6] [K]	dTm [7] [K]	dTm [8] [K]	Compound
0.48	3.09	0.82	-2.29	0.27	2.83	5.31	-0.59	O=C(Nc1cccc(-c2c[nH]c3ncnc(N4CCOCC4)c23)c1)C1(C(=O)Nc2ccc(F)cc2F)CC1 [Compound 23]
7.70	6.52	1.32	-0.92	0.33	6.75	10.45	0.44	Cc1cc(NC(=O)C2(C(=O)Nc3cccc(-c4c[nH]c5ncnc(N6CCOCC6)c45)c3)CC2)ccc1F [Compound 20]
8.01	-1.75	0.38	0.34	-0.67	-0.53		-0.30	CC(=O)N1CCN(c2nc(Cl)nc3[nH]cc(-c4cccc(NC(=O)Nc5cc(C(C)(C)C)nn5-c5ccc(C)cc5)c4)c23)CC1 [Compound 31]
3.89	4.54	0.52	1.69	0.88	-6.12	4.32	-0.19	Cc1cc(NC(=O)C2(C(=O)Nc3ccc(F)cc3)CC2)cc(-c2c[nH]c3ncnc(N4CCOCC4)c23)c1 [Compound 6]
6.52	3.99	1.02	-1.64	0.56	3.45	5.09	0.71	O=C(Nc1ccccc1)C1(C(=O)Nc2cccc(-c3c[nH]c4ncnc(N5CCOCC5)c34)c2)CC1 [Compound 12]
7.61	-2.01	0.19	0.22	-0.59	-1.19		-0.62	Cc1ccc(-n2nc(C(C)(C)C)cc2NC(=O)Nc2cccc(-c3c[nH]c4nc(Cl)nc(N5CCOCC5)c34)c2)cc1 [Compound 30]
11.96	0.48	0.97	2.68	0.38	3.91		-0.41	Cc1ccc(-n2nc(C(C)(C)C)cc2NC(=O)Nc2cccc(-c3c[nH]c4ncnc(N5CCOCC5)c34)c2)cc1 [Compound 29]
1.58		1.36	1.10	2.57	1.18	10.65	0.41	Cc1ccc(C(=O)Nc2ccc(CN3CCN(C)CC3)c(C(F)(F)F)c2)cc1C#Cc1c[nH]c2ncnc(N3CCOCC3)c12 [Compound 1]
